Results published in patent publication US9580416B2, “Inhibitors of Bruton's tyrosine kinase” (PHARMACYCLICS LLC, priority 2014, dated 2017).

What was measured:
Assay type in all cases: biochemical
Btk = Btk (Homo sapiens, UniProt Q06187); experiment: Btk kinase activity, TR-FRET assay; conditions: read-out: Btk (IC50)
Method in brief: (§1)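 Enzyme (Btk 0.5 nM; Lck 6 nM) reacted 1 h with inhibitor, ATP at Km and biotin-peptide substrate in pH 7.4 buffer, 10% DMSO. Phosphopeptide detected by Eu-p-Tyr100 antibody plus streptavidin-APC (665/615 nm). IC50 calculated from fitted Ki(app) via ATP/Km correction plus half total enzyme.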

Lck = Lck (Homo sapiens, UniProt P06239); experiment: Lck kinase activity, TR-FRET assay; conditions: read-out: LCK (IC50)
Chain of Lck (P06239 whole entry, species assumed): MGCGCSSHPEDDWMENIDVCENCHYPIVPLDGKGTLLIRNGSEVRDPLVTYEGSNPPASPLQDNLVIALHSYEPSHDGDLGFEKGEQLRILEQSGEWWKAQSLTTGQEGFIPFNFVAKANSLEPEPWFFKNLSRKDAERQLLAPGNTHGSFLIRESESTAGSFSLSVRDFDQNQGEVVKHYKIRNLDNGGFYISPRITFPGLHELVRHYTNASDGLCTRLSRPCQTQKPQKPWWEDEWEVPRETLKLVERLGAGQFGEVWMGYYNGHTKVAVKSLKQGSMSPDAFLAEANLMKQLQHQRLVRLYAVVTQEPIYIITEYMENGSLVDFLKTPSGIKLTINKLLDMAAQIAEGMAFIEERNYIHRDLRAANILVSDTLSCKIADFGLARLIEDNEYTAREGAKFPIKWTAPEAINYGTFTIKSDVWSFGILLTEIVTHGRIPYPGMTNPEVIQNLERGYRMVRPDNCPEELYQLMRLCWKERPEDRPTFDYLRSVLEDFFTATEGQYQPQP
Method in brief: as §1

JAK3 = target: T1, JAK3 (Homo sapiens, UniProt P52333); experiment: Inhibition of a panel of kinases, in vitro HotSpot kinase assay: JAK3
T1 sequence (P52333 1-1124): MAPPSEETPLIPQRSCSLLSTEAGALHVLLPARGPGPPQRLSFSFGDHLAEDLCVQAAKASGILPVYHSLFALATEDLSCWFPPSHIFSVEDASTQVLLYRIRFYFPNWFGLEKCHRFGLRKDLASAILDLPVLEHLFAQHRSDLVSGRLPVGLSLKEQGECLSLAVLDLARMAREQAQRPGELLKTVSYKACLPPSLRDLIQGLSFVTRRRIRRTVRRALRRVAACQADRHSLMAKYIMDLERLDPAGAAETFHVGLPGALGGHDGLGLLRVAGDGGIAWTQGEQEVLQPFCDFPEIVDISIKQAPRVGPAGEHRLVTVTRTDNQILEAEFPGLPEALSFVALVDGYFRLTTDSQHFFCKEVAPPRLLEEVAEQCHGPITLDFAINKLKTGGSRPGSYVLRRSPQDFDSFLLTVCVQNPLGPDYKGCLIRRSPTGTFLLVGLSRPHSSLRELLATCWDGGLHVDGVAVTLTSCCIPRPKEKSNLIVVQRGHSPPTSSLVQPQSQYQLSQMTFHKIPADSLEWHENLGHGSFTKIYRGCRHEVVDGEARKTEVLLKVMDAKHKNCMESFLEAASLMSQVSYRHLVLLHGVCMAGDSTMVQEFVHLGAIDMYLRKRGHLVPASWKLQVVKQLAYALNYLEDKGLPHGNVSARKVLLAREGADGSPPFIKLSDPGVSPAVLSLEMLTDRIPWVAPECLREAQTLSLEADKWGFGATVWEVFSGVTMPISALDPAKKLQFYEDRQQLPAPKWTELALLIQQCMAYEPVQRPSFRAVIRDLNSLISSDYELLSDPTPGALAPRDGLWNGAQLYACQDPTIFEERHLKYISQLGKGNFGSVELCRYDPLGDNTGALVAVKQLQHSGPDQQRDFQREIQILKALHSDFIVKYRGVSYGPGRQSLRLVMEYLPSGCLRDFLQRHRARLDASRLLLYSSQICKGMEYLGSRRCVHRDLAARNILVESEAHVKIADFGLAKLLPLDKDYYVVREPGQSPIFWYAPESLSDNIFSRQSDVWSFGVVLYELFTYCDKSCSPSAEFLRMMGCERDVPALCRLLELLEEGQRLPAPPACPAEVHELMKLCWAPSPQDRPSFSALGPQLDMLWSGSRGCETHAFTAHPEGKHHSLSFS
Description: (§2) The degree of inhibition of a panel of kinases is determined using the in vitro HotSpot kinase assay (purified enzymes, ^33P-ATP, an appropriate substrate and 1 uM ATP).

EGFR = EGFR (Homo sapiens, UniProt P00533); experiment: Inhibition of a panel of kinases, in vitro HotSpot kinase assay: EGFR
Chain of EGFR (P00533 25-1210): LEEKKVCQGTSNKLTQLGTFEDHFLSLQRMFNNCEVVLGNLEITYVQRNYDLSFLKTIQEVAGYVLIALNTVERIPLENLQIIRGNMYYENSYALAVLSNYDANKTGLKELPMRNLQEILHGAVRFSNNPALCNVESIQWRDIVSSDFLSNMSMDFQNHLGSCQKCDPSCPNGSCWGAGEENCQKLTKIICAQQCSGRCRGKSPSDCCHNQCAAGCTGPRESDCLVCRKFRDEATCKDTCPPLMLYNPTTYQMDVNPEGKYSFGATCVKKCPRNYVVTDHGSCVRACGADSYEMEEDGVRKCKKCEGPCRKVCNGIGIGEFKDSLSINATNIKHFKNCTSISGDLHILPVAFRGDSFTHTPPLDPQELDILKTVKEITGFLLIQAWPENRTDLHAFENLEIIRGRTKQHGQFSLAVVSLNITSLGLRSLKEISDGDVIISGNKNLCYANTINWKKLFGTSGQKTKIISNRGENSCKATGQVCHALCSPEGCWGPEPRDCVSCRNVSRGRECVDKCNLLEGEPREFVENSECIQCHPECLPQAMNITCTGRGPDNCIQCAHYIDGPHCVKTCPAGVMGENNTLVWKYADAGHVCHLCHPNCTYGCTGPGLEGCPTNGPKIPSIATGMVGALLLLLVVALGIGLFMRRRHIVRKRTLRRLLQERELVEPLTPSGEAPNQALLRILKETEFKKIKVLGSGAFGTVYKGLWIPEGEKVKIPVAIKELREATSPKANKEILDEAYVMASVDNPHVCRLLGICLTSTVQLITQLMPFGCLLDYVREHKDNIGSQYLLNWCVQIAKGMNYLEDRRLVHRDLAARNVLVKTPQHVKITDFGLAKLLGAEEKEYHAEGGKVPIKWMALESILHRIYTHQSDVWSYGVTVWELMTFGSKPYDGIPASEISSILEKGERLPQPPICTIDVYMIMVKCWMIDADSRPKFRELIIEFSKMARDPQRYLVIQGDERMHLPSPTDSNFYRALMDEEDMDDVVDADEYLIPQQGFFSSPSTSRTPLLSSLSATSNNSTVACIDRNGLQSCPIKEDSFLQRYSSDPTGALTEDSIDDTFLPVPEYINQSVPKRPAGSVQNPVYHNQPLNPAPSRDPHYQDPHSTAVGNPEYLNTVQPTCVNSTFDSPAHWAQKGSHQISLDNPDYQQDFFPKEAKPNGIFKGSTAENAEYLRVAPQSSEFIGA
Description: as §2

Chain of Btk (Q06187 whole entry): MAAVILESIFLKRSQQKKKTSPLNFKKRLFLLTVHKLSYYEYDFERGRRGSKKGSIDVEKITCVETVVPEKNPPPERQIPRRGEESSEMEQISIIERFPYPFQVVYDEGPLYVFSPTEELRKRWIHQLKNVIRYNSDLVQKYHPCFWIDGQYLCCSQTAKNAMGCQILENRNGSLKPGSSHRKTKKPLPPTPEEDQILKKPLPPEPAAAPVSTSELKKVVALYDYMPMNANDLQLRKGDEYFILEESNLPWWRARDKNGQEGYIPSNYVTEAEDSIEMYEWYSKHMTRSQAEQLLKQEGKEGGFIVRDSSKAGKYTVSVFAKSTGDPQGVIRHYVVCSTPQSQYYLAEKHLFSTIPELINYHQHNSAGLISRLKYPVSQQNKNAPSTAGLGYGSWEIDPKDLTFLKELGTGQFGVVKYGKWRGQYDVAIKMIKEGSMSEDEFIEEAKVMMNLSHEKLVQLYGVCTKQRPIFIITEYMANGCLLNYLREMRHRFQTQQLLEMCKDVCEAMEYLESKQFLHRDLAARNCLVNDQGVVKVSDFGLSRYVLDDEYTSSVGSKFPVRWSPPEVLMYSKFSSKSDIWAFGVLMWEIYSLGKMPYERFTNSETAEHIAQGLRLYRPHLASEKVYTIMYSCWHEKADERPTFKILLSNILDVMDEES

Row | SMILES | IC50 (Btk) [nM] | IC50 (Lck) [nM] | IC50 (JAK3) [nM] | IC50 (EGFR) [nM]
1 | CCC(=O)N1CCC[C@@H](Nc2n[nH]c3nccc(Oc4ccc(-c5nc6cccc(C)c6o5)cc4)c23)C1 [compound 219, 1-[(3R)-3-({4-[4-(7-methyl-1,3-benzoxazol-2-yl)phenoxy]-1H-pyrazolo[3,4-b]pyridin-3-yl}amino)piperidin-1-yl]propan-1-one] | > 10000 | > 10000 | > 10000 | > 10000
2 | Cc1cccc2nc(-c3ccc(Oc4ccnc5[nH]nc(N[C@@H]6CCCN(C(=O)C7CC7)C6)c45)cc3)oc12 [compound 220, (3R)-1-cyclopropanecarbonyl-N-{4-[4-(7-methyl-1,3-benzoxazol-2-yl)phenoxy]-1H-pyrazolo[3,4-b]pyridin-3-yl}piperidin-3-amine] | 1000 to 10000 | > 10000 | > 10000 | > 10000
3 | Cc1cnc(NC(=O)c2ccc(Oc3ccnc4[nH]nc(N[C@@H]5CCN(C(=O)C6CCN(C)CC6)C5)c34)cc2)s1 [compound 221, N-(5-methyl-1,3-thiazol-2-yl)-4-[(3-{[(3R)-1-(1-methylpiperidine-4-carbonyl)pyrrolidin-3-yl]amino}-1H-pyrazolo[3,4-b]pyridin-4-yl)oxy]benzamide] | < 100 | 100 to 1000 | > 10000 | 1000 to 10000
4 | CCC(=O)N1CCC[C@@H](Nc2n[nH]c3nccc(Oc4ccc(-c5nc6ccccc6s5)cc4)c23)C1 [compound 222, 1-[(3R)-3-({4-[4-(1,3-benzothiazol-2-yl)phenoxy]-1H-pyrazolo[3,4-b]pyridin-3-yl}amino)piperidin-1-yl]propan-1-one] | 100 to 1000 | 100 to 1000 | > 10000 | > 10000
5 | CCNC(=O)N1CCC[C@@H](Nc2n[nH]c3nccc(Oc4ccc(-c5nc6ccccc6[nH]5)cc4)c23)C1 [compound 224, (3R)-3-({4-[4-(1H-1,3-benzodiazol-2-yl)phenoxy]-1H-pyrazolo[3,4-b]pyridin-3-yl}amino)-N-ethylpiperidine-1-carboxamide] | 1000 to 10000 | 1000 to 10000 | > 10000 | > 10000
6 | CCC(=O)N1CCC[C@@H](Nc2n[nH]c3nccc(Oc4ccc(C(=O)Nc5cc(C(F)(F)F)ccn5)cc4)c23)C1 [compound 225, 4-[(3-{[(3R)-1-propanoylpiperidin-3-yl]amino}-1H-pyrazolo[3,4-b]pyridin-4-yl)oxy]-N-[4-(trifluoromethyl)pyridin-2-yl]benzamide] | < 100 | 100 to 1000 | > 10000 | 100 to 1000
7 | CC1(C(=O)N2CCC[C@@H](Nc3n[nH]c4nccc(Oc5ccc(C(=O)Nc6nc7ccccc7s6)cc5)c34)C2)COC1 [compound 226, N-(1,3-benzothiazol-2-yl)-4-[(3-{[(3R)-1-(3-methyloxetane-3-carbonyl)piperidin-3-yl]amino}-1H-pyrazolo[3,4-b]pyridin-4-yl)oxy]benzamide] | < 100 | 100 to 1000 | 1000 to 10000 | > 10000
8 | CCNC(=O)N1CCC[C@@H](Nc2n[nH]c3nccc(Oc4ccc(C(=O)Nc5cc(C)ccn5)cc4)c23)C1 [compound 227, (R)-N-ethyl-3-(4-(4-(4-methylpyridin-2-ylcarbamoyl)phenoxy)-1H-pyrazolo[3,4-b]pyridin-3-ylamino)piperidine-1-carboxamide] | < 100 | 1000 to 10000 | > 10000 | > 10000
9 | CCNC(=O)N[C@@H]1CCCN(c2n[nH]c3nccc(Oc4ccc(C(=O)Nc5cc(C(F)(F)F)ccn5)cc4)c23)C1 [compound 228, 4-({3-[(3R)-3-[(ethylcarbamoyl)amino]piperidin-1-yl]-1H-pyrazolo[3,4-b]pyridin-4-yl}oxy)-N-[4-(trifluoromethyl)pyridin-2-yl]benzamide] | < 100 | 100 to 1000 | > 10000 | 1000 to 10000
10 | CCNC(=O)N1CCC[C@@H](Nc2n[nH]c3nccc(Oc4ccc(C(=O)Nc5ccccn5)cc4)c23)C1 [compound 229, (3R)-N-ethyl-3-[(4-{4-[(pyridin-2-yl)carbamoyl]phenoxy}-1H-pyrazolo[3,4-b]pyridin-3-yl)amino]piperidine-1-carboxamide] | < 100 | > 10000 | > 10000 | 1000 to 10000
11 | CN(C)CCCC(=O)N[C@@H]1CCCN(c2n[nH]c3nccc(Oc4ccc(C(=O)Nc5cc(C(F)(F)F)ccn5)cc4)c23)C1 [compound 230, 4-({3-[(3R)-3-[4-(dimethylamino)butanamido]piperidin-1-yl]-1H-pyrazolo[3,4-b]pyridin-4-yl}oxy)-N-[4-(trifluoromethyl)pyridin-2-yl]benzamide] | 100 to 1000 | > 10000 | > 10000 | > 10000
12 | CCC(=O)N1CCC[C@@H](Nc2n[nH]c3nccc(Oc4ccc(-c5nc6ccccc6[nH]5)cc4)c23)C1 [compound 231, 1-[(3R)-3-({4-[4-(1H-1,3-benzodiazol-2-yl)phenoxy]-1H-pyrazolo[3,4-b]pyridin-3-yl}amino)piperidin-1-yl]propan-1-one] | > 10000 | > 10000 | > 10000 | > 10000
13 | O=C(Nc1ccccn1)c1ccc(Oc2ccnc3[nH]nc(N[C@@H]4CCCN(C(=O)C5CC5)C4)c23)cc1 [compound 232, 4-[(3-{[(3R)-1-cyclopropanecarbonylpiperidin-3-yl]amino}-1H-pyrazolo[3,4-b]pyridin-4-yl)oxy]-N-(pyridin-2-yl)benzamide] | < 100 | > 10000 | > 10000 | 1000 to 10000
14 | CN(C)C(=O)N1CCC[C@@H](Nc2n[nH]c3nccc(Oc4ccc(C(=O)Nc5ccccn5)cc4)c23)C1 [compound 233, (3R)-N,N-dimethyl-3-[(4-{4-[(pyridin-2-yl)carbamoyl]phenoxy}-1H-pyrazolo[3,4-b]pyridin-3-yl)amino]piperidine-1-carboxamide] | < 100 | > 10000 | > 10000 | > 10000
15 | CCNC(=O)N[C@H]1CCCN(c2n[nH]c3nccc(Oc4ccc(C(=O)Nc5cc(C(F)(F)F)ccn5)cc4)c23)C1 [compound 234, 4-({3-[(3S)-3-[(ethylcarbamoyl)amino]piperidin-1-yl]-1H-pyrazolo[3,4-b]pyridin-4-yl}oxy)-N-[4-(trifluoromethyl)pyridin-2-yl]benzamide] | 100 to 1000 | > 10000 | > 10000 | > 10000
16 | C=CC(=O)N1CCC[C@@H](Nc2n[nH]c3nccc(Oc4cccc(C(=O)Nc5ccc(C(C)C)c(C)c5)c4)c23)C1 [compound 250, (R)-3-(3-(1-acryloylpiperidin-3-ylamino)-1H-pyrazolo[3,4-b]pyridin-4-yloxy)-N-(4-isopropyl-3-methylphenyl)benzamide] | < 100 | < 100 | < 100 | < 100
17 | Cc1cc(NC(=O)c2cccc(Oc3ccnc4[nH]nc(N[C@@H]5CCCN(C(=O)C#CCO)C5)c34)c2)ccc1C(C)C [compound 251, (R)-3-(3-(1-(4-hydroxybut-2-ynoyl)piperidin-3-ylamino)-1H-pyrazolo[3,4-b]pyridin-4-yloxy)-N-(4-isopropyl-3-methylphenyl)benzamide] | < 100 | 100 to 1000 | < 100 | < 100
18 | Cc1ccnc(NC(=O)c2ccc(Oc3ccnc4[nH]nc(N[C@@H]5CCCN(S(C)(=O)=O)C5)c34)cc2)c1 [compound 269, (R)-N-(4-methylpyridin-2-yl)-4-(3-(1-(methylsulfonyl)piperidin-3-ylamino)-1H-pyrazolo[3,4-b]pyridin-4-yloxy)benzamide] | < 100 | 100 to 1000 | > 10000 | 1000 to 10000
